According to patent US9062124B2, “GIP-based mixed agonists for treatment of metabolic disorders and obesity” (priority 2008, dated 2015):
Where a SMILES comes first, the peptide text is derived from it. Bridges are numbered along the chain shown (N, C = ends). [ ]: non-standard residue; d: D form. The star is where a group is joined. Octanoyl = CCCCCCCC(=O)*; Aib = CC(C)(N)C(=O)O

Tests used:
Assay type in all cases: cell-based
[1] = test system: glucagon receptor, GLP-1 receptor or GIP receptor; assay: Agonist profile across receptors assigned from the cAMP reporter assay data; conditions: assigned from the in vitro EC50 data of Tables 1-4
[2] = biological target: T1, GIP receptor (Homo sapiens, UniProt P48546); assay: cAMP synthesis functional assay (firefly luciferase reporter in HEK293 cells), GIP receptor
T1 construct: expressed in transfected cells; host or cells: HEK293
T1 sequence (P48546 22-466): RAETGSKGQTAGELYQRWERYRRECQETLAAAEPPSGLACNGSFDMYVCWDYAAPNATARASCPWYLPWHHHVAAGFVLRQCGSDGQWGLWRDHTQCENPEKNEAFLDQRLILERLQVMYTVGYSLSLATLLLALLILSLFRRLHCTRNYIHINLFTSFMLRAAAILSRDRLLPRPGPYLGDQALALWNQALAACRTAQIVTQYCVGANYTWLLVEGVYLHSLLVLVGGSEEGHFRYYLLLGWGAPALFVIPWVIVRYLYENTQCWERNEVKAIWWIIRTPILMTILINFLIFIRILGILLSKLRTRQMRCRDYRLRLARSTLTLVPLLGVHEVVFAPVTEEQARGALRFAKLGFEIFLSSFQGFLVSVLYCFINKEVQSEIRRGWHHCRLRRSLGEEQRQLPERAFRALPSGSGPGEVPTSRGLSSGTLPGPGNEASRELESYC

[3] = biological target: T2, glucagon receptor (Homo sapiens, UniProt P47871); assay: cAMP synthesis functional assay (firefly luciferase reporter in HEK293 cells), glucagon receptor; conditions: for EC50: Glucagon Receptor EC50, cAMP luciferase reporter assay as in Example 16
T2 construct: expressed in transfected cells; host or cells: HEK293

[4] = biological target: T3, GLP-1 receptor (Homo sapiens, UniProt P43220); assay: cAMP synthesis functional assay (firefly luciferase reporter in HEK293 cells), GLP-1 receptor
T3 construct: expressed in transfected cells; host or cells: HEK293

[5] = Table 1, relative to the native hormone of the indicated receptor
[6] = relative to the standard (Std.) EC50 of the same run
[7] = GLP-1 Receptor EC50, cAMP luciferase reporter assay as in Example 16

T3 sequence (P43220 24-463, species assumed): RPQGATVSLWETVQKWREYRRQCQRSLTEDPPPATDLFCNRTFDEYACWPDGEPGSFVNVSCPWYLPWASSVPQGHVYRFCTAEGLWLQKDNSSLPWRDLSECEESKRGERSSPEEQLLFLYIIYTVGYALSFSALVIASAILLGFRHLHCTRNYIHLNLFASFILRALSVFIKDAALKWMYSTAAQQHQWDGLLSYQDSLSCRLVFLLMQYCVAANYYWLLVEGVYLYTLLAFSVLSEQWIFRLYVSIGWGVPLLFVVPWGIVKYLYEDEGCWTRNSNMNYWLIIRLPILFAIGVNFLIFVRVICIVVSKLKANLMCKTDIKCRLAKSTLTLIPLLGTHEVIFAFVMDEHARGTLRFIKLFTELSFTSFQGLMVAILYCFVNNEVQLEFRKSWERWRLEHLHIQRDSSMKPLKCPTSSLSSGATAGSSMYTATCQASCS
T2 sequence (P47871 26-477): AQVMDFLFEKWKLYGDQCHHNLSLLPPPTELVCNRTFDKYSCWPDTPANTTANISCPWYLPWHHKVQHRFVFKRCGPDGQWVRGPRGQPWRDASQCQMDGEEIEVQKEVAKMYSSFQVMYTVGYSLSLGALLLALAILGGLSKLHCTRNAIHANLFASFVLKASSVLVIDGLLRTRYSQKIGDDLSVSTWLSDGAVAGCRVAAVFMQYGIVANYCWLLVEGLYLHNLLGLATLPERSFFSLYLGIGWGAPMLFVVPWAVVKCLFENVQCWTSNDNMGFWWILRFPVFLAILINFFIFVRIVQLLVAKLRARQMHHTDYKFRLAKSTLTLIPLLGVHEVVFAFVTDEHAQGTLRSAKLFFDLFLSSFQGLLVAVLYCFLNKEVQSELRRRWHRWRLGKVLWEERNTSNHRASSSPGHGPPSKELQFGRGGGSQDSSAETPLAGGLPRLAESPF

SMILES	receptor activity profile (glucagon / GLP-1 / GIP agonism) [1]	GIP Receptor relative activity [2, 5] [%]	Glucagon Receptor relative activity [3, 5] [%]	GLP-1 Receptor relative activity [4, 5] [%]	EC50 ([2]; GIP Receptor EC50, cAMP luciferase reporter assay as in Example 16) [nM]	GIP Receptor relative activity [2, 6] [%]	EC50 [3] [nM]	Glucagon Receptor relative activity [3, 6] [%]	EC50 [4, 7] [nM]	GLP-1 Receptor relative activity [4, 6] [%]	EC50 ([4]; GLP-1 Receptor EC50, nM, Table 1) [nM]
CC[C@H](C)[C@H](NC(=O)[C@H](Cc1ccccc1)NC(=O)[C@H](CCC(=O)O)NC(=O)[C@@H]1CCCCNC(=O)CC[C@H](NC(=O)[C@H](CC(=O)O)NC(=O)[C@H](CC(C)C)NC(=O)[C@H](Cc2ccc(O)cc2)NC(=O)[C@@H](NC(=O)[C@H](CO)NC(=O)[C@H](Cc2ccc(O)cc2)NC(=O)[C@H](CC(=O)O)NC(=O)[C@H](CO)NC(=O)[C@@H](NC(=O)[C@H](Cc2ccccc2)NC(=O)[C@@H](NC(=O)CNC(=O)[C@H](CCC(N)=O)NC(=O)[C@H](CO)NC(=O)[C@@H](N)Cc2ccc(O)cc2)[C@@H](C)O)[C@@H](C)O)[C@@H](C)CC)C(=O)N[C@@H](CCC(N)=O)C(=O)N[C@@H](C)C(=O)N[C@@H](C)C(=O)N1)C(=O)N[C@@H](C)C(=O)N[C@@H](Cc1c[nH]c2ccccc12)C(=O)N[C@@H](CC(C)C)C(=O)N[C@@H](CC(C)C)C(=O)N[C@@H](C)C(=O)NCC(=O)NCC(=O)N1CCC[C@H]1C(=O)N[C@@H](CO)C(=O)N[C@@H](CO)C(=O)NCC(=O)N[C@@H](C)C(=O)N1CCC[C@H]1C(=O)N1CCC[C@H]1C(=O)N1CCC[C@H]1C(=O)N[C@@H](CO)C(N)=O [mt-147] (H-YSQGTFTSDYSIYLDEQAAKEFIAWLLAGGPSSGAPPPS-NH2; lactam 16-20; N-terminus assumed)	exemplary GLP-1/GIP/glucagon triagonist peptides	43.06	90.52	33.87	–	–	–	–	–	–	–
CCCCCCCCCCCCCCCC(=O)NCCCC[C@H](NC(=O)[C@H](CO)NC(=O)[C@@H]1CCCN1C(=O)[C@@H]1CCCN1C(=O)[C@@H]1CCCN1C(=O)[C@H](C)NC(=O)CNC(=O)[C@H](CO)NC(=O)[C@H](CO)NC(=O)[C@@H]1CCCN1C(=O)CNC(=O)CNC(=O)[C@H](CC(N)=O)NC(=O)[C@H](CCSC)NC(=O)[C@H](CC(C)C)NC(=O)[C@H](Cc1c[nH]c2ccccc12)NC(=O)[C@H](CS)NC(=O)[C@@H](NC(=O)[C@H](Cc1ccccc1)NC(=O)[C@H](CCC(=O)O)NC(=O)C(C)(C)NC(=O)[C@H](C)NC(=O)[C@H](C)NC(=O)[C@H](CCC(N)=O)NC(=O)[C@H](CCCCN)NC(=O)[C@H](CC(=O)O)NC(=O)[C@H](CC(C)C)NC(=O)[C@H](Cc1ccc(O)cc1)NC(=O)[C@@H](NC(=O)[C@H](CO)NC(=O)[C@H](Cc1ccc(O)cc1)NC(=O)[C@H](CC(=O)O)NC(=O)[C@H](CO)NC(=O)[C@@H](NC(=O)[C@H](Cc1ccccc1)NC(=O)[C@@H](NC(=O)CNC(=O)[C@H](CCC(N)=O)NC(=O)C(C)(C)NC(=O)[C@@H](N)Cc1ccc(O)cc1)[C@@H](C)O)[C@@H](C)O)[C@@H](C)CC)C(C)C)C(N)=O [mt-297]	exhibited activity at the GIP, GLP-1, and glucagon receptors	–	–	–	0.0168	97.02	0.0132	362.12	0.0129	125.58	–
CC[C@H](C)[C@H](NC(=O)[C@H](CO)NC(=O)[C@H](Cc1ccc(O)cc1)NC(=O)[C@H](CC(=O)O)NC(=O)[C@H](CO)NC(=O)[C@H](CO)NC(=O)[C@H](Cc1ccccc1)NC(=O)[C@@H](NC(=O)CNC(=O)[C@H](CCC(N)=O)NC(=O)C(C)(C)NC(=O)[C@@H](N)Cc1ccc(O)cc1)[C@@H](C)O)C(=O)N[C@@H](Cc1ccc(O)cc1)C(=O)N[C@@H](CC(C)C)C(=O)N[C@@H](CC(=O)O)C(=O)N[C@@H](CCCCN)C(=O)N[C@@H](CCC(N)=O)C(=O)N[C@@H](C)C(=O)N[C@@H](C)C(=O)NC(C)(C)C(=O)N[C@@H](CCC(=O)O)C(=O)N[C@@H](Cc1ccccc1)C(=O)N[C@H](C(=O)N[C@@H](CC(N)=O)C(=O)N[C@@H](Cc1c[nH]c2ccccc12)C(=O)N[C@@H](CC(C)C)C(=O)N[C@@H](CC(C)C)C(=O)N[C@@H](C)C(=O)NCC(=O)NCC(=O)N1CCC[C@H]1C(=O)N[C@@H](CO)C(=O)N[C@@H](CO)C(=O)NCC(=O)N[C@@H](C)C(=O)N1CCC[C@H]1C(=O)N1CCC[C@H]1C(=O)N1CCC[C@H]1C(=O)N[C@@H](CO)C(=O)N[C@@H](CS)C(N)=O)C(C)C [mt-324] (H-Y[Aib]QGTFSSDYSIYLDKQAA[Aib]EFVNWLLAGGPSSGAPPPSC-NH2; N-terminus assumed)	exhibited activity at the GIP, GLP-1, and glucagon receptors	–	–	–	–	30.23	–	6.41	–	9.68	–
CCCCCCCC(=O)NCCCC[C@H](NC(=O)[C@H](CO)NC(=O)[C@@H]1CCCN1C(=O)[C@@H]1CCCN1C(=O)[C@@H]1CCCN1C(=O)[C@H](C)NC(=O)CNC(=O)[C@H](CO)NC(=O)[C@H](CO)NC(=O)[C@@H]1CCCN1C(=O)CNC(=O)CNC(=O)[C@H](C)NC(=O)[C@H](CC(C)C)NC(=O)[C@H](CC(C)C)NC(=O)[C@H](Cc1c[nH]c2ccccc12)NC(=O)[C@H](CC(N)=O)NC(=O)[C@@H](NC(=O)[C@H](Cc1ccccc1)NC(=O)[C@H](CCC(=O)O)NC(=O)C(C)(C)NC(=O)[C@H](C)NC(=O)[C@H](C)NC(=O)[C@H](CCC(N)=O)NC(=O)[C@H](CCCCN)NC(=O)[C@H](CC(=O)O)NC(=O)[C@H](CC(C)C)NC(=O)[C@H](Cc1ccc(O)cc1)NC(=O)[C@@H](NC(=O)[C@H](CO)NC(=O)[C@H](Cc1ccc(O)cc1)NC(=O)[C@H](CC(=O)O)NC(=O)[C@H](CO)NC(=O)[C@@H](NC(=O)[C@H](Cc1ccccc1)NC(=O)[C@@H](NC(=O)CNC(=O)[C@H](CCC(N)=O)NC(=O)C(C)(C)NC(=O)[C@@H](N)Cc1ccc(O)cc1)[C@@H](C)O)[C@@H](C)O)[C@@H](C)CC)C(C)C)C(N)=O [mt-323] (H-Y[Aib]QGTFTSDYSIYLDKQAA[Aib]EFVNWLLAGGPSSGAPPPSK(Octanoyl)-NH2; N-terminus assumed)	exhibited activity at the GIP, GLP-1, and glucagon receptors	–	–	–	–	122.62	0.217	39.00	0.0571	35.55	–
CC[C@H](C)[C@H](NC(=O)[C@H](CO)NC(=O)[C@H](Cc1ccc(O)cc1)NC(=O)[C@H](CC(=O)O)NC(=O)[C@H](CO)NC(=O)[C@@H](NC(=O)[C@H](Cc1ccccc1)NC(=O)[C@@H](NC(=O)CNC(=O)[C@H](CCC(N)=O)NC(=O)C(C)(C)NC(=O)[C@@H](N)Cc1ccc(O)cc1)[C@@H](C)O)[C@@H](C)O)C(=O)N[C@@H](Cc1ccc(O)cc1)C(=O)N[C@@H](CC(C)C)C(=O)N[C@@H](CC(=O)O)C(=O)N[C@H]1CCC(=O)NCCCC[C@@H](C(=O)N[C@@H](CCC(=O)O)C(=O)N[C@@H](Cc2ccccc2)C(=O)N[C@H](C(=O)N[C@@H](CC(N)=O)C(=O)N[C@@H](Cc2c[nH]c3ccccc23)C(=O)N[C@@H](CC(C)C)C(=O)N[C@@H](CC(C)C)C(=O)N[C@@H](C)C(=O)NCC(=O)NCC(=O)N2CCC[C@H]2C(=O)N[C@@H](CO)C(=O)N[C@@H](CO)C(=O)NCC(=O)N[C@@H](C)C(=O)N2CCC[C@H]2C(=O)N2CCC[C@H]2C(=O)N2CCC[C@H]2C(=O)N[C@@H](CO)C(=O)N[C@@H](CS)C(N)=O)C(C)C)NC(=O)[C@H](C)NC(=O)[C@H](C)NC(=O)[C@H](CCC(N)=O)NC1=O [mt-165] (H-Y[Aib]QGTFTSDYSIYLDEQAAKEFVNWLLAGGPSSGAPPPSC-NH2; lactam 16-20; N-terminus assumed)	exemplary GLP-1/GIP/glucagon triagonist peptides	27.03	18.81	147.83	–	–	–	–	–	–	0.023
CC[C@H](C)[C@H](NC(=O)[C@H](CO)NC(=O)[C@H](Cc1ccc(O)cc1)NC(=O)[C@H](CC(=O)O)NC(=O)[C@H](CO)NC(=O)[C@@H](NC(=O)[C@H](Cc1ccccc1)NC(=O)[C@@H](NC(=O)CNC(=O)[C@H](CCC(=O)O)NC(=O)C(C)(C)NC(=O)[C@@H](N)Cc1ccc(O)cc1)[C@@H](C)O)[C@@H](C)O)C(=O)N[C@@H](Cc1ccc(O)cc1)C(=O)N[C@@H](CC(C)C)C(=O)N[C@@H](CC(=O)O)C(=O)N[C@H]1CCC(=O)NCCCC[C@@H](C(=O)N[C@@H](CCC(=O)O)C(=O)N[C@@H](Cc2ccccc2)C(=O)N[C@H](C(=O)N[C@@H](CC(N)=O)C(=O)N[C@@H](Cc2c[nH]c3ccccc23)C(=O)N[C@@H](CC(C)C)C(=O)N[C@@H](CC(C)C)C(=O)N[C@@H](C)C(=O)NCC(=O)NCC(=O)N2CCC[C@H]2C(=O)N[C@@H](CO)C(=O)N[C@@H](CO)C(=O)NCC(=O)N[C@@H](C)C(=O)N2CCC[C@H]2C(=O)N2CCC[C@H]2C(=O)N2CCC[C@H]2C(=O)N[C@@H](CO)C(=O)N[C@@H](CS)C(N)=O)C(C)C)NC(=O)[C@H](C)NC(=O)[C@H](C)NC(=O)[C@H](CCC(N)=O)NC1=O [mt-174] (H-Y[Aib]EGTFTSDYSIYLDEQAAKEFVNWLLAGGPSSGAPPPSC-NH2; lactam 16-20; N-terminus assumed)	exemplary GLP-1/GIP co-agonist peptides	95.65	0.06	117.65	–	–	–	–	–	–	–
